Measurements from ChEMBL document CHEMBL3745664, “Synthesis, biological evaluation and QSAR studies of diarylpentanoid analogues as potential nitric oxideinhibitors” (Medchemcomm, 2015).

Tests used:
RAW264.7 [1] = experiment: Antiinflammatory activity in mouse RAW264.7 cells assessed as inhibition of LPS/IFN-gamma-stimulated nitric oxide production at 50 uM after 17 hrs by Griess assay; assay type: functional; details: RAW264.7, 17 h
RAW264.7 [2] = experiment: Antiinflammatory activity in mouse RAW264.7 cells assessed as inhibition of LPS/IFN-gamma-stimulated nitric oxide production after 17 hrs by Griess assay; assay type: functional, cell-based; details: RAW264.7, 17 h
RAW264.7 [3] = experiment: Cytotoxicity against mouse RAW264.7 cells by MTT assay; assay type: cell-based
[4] = Chemical stability of the compound in phosphate buffer at 20 uM at pH 2.4 at 25 degC by UV-visible spectrophotometric analysis; assay type: physicochemical; details: pH 2.4, 20 µM
[5] = Chemical stability of the compound in phosphate buffer at 20 uM at pH 7 at 25 degC by UV-visible spectrophotometric analysis; assay type: physicochemical; details: pH 7, 20 µM
[6] = Chemical stability of the compound in phosphate buffer at 20 uM at pH 12.7 at 25 degC by UV-visible spectrophotometric analysis; assay type: physicochemical; details: pH 12.7, 20 µM

Row | Structure (SMILES) | inhibition at 50 µM (RAW264.7 [1]) | IC50 (RAW264.7 [2]; read-out: IC50) | IC50 (RAW264.7 [2]; read-out: pIC50 (converted)) | IC50 (RAW264.7 [3]) | Stability [4] | Stability [5] | Stability [6]
1 | O=C(/C=C/C=C/c1ccccc1)c1ccccc1 | 66.8% | 44.6 µM | 44.6 µM | 44.3 µM | – | – | –
2 | O=C(/C=C/C=C/c1ccccc1)c1cc(Cl)ccc1O | < 10% | – | – | – | – | – | –
3 | COc1ccc(/C=C/C=C/C(=O)c2cc(Cl)ccc2O)cc1 | 26.4% | – | – | – | – | – | –
4 | O=C(/C=C/C=C/c1ccc(Cl)cc1)c1cc(Cl)ccc1O | < 10% | – | – | – | – | – | –
5 | O=C(/C=C/C=C/c1ccccc1)c1ccccc1O | < 10% | – | – | – | – | – | –
6 | O=C(/C=C/C=C/c1ccccc1)c1ccc(F)cc1 | 33.1% | – | – | – | – | – | –
7 | COc1ccc(/C=C/C=C/C(=O)c2ccc[nH]2)cc1 | 95.8% | 57.4 µM | 57.4 µM | > 100 µM | – | – | –
8 | COc1ccc(/C=C/C=C/C(=O)c2cccs2)cc1 | 69.6% | 47.9 µM | 47.9 µM | 68.5 µM | – | – | –
9 | COc1cc(/C=C/C=C/C(=O)c2ccc(F)cc2)cc(OC)c1O | 76.7% | 39.3 µM | 39.3 µM | 5 µM | – | – | –
10 | O=C(/C=C/C=C/c1ccccc1)c1cccc(O)c1 | 104% | 26.1 µM | 26.1 µM | 48.7 µM | – | – | –
11 | COc1ccc(/C=C/C=C/C(=O)c2ccc(O)cc2F)cc1 | 102% | 21.8 µM | 21.8 µM | 60.3 µM | – | – | –
12 | COc1ccc(C(=O)/C=C/C=C/c2ccccc2)cc1 | 51.1% | 71.2 µM | 71.1 µM | > 100 µM | – | – | –
13 | COc1cc(/C=C/C=C/C(=O)c2ccccc2)cc(OC)c1O | 64.1% | 42 µM | 42 µM | 28.7 µM | – | – | –
14 | COc1ccc(/C=C/C=C/C(=O)c2ccc(OC)c(O)c2)cc1 | 100% | 16.3 µM | 16.3 µM | 28.4 µM | – | – | –
15 | CN(C)c1ccc(/C=C/C=C/C(=O)c2ccc(F)cc2)cc1 | 71.5% | 63.8 µM | 63.8 µM | > 100 µM | – | – | –
16 | COc1ccc(/C=C/C=C/C(=O)c2ccc(OC)cc2)cc1 | 41.6% | – | – | – | – | – | –
17 | O=C(/C=C/C=C/c1ccccc1)c1cc(Cl)cc(Cl)c1O | 19.6% | – | – | – | – | – | –
18 | O=C(/C=C/C=C/c1ccc(O)cc1)c1ccc(F)cc1 | 110% | 14.8 µM | 14.8 µM | 45.5 µM | – | – | –
19 | COc1ccc(C(=O)/C=C/C=C/c2ccc(N(C)C)cc2)cc1 | 54.5% | 77.4 µM | 77.4 µM | > 100 µM | – | – | –
20 | CN(C)c1ccc(/C=C/C=C/C(=O)c2cccs2)cc1 | 32.4% | – | – | – | – | – | –
21 | COc1ccc(C(=O)/C=C/C=C/c2ccc(O)cc2)c(O)c1 | 93.4% | 27.1 µM | 27.1 µM | > 100 µM | – | – | –
22 | COc1ccc(/C=C/C=C/C(=O)c2ccc(OC)cc2OC)cc1 | < 10% | – | – | – | – | – | –
23 | COc1ccc(/C=C/C=C/C(=O)c2ccc(O)c(Cl)c2)cc1 | 98.2% | 23.5 µM | 23.4 µM | 67.6 µM | – | – | –

Row | Structure (SMILES) | inhibition at 50 µM (RAW264.7 [1]) | IC50 (RAW264.7 [2]; read-out: IC50) | IC50 (RAW264.7 [2]; read-out: pIC50 (converted)) | IC50 (RAW264.7 [3]) | Stability [4] | Stability [5] | Stability [6]
24 | O=C(/C=C/C=C/c1ccc(O)cc1)c1ccc(O)cc1 | 102% | 16.4 µM | 16.4 µM | > 100 µM | – | – | –
25 | COc1ccc(/C=C/C=C/C(=O)c2cc(C)oc2C)cc1 | 59.7% | 39.8 µM | 45.7 µM | > 100 µM | – | – | –
26 | Cc1ccc(C(=O)/C=C/C=C/c2ccccc2)s1 | 52.6% | 68.6 µM | 68.5 µM | > 100 µM | – | – | –
27 | Cc1cc(C(=O)/C=C/C=C/c2ccccc2)c(C)o1 | 84.6% | 59 µM | 58.9 µM | > 100 µM | – | – | –
28 | O=C(/C=C/C=C/c1ccccc1)c1cc(Br)ccc1O | < 10% | – | – | – | – | – | –
29 | COc1ccc(/C=C/C=C/C(=O)c2ccc(F)cc2)cc1 | 40% | – | – | – | – | – | –
30 | O=C(/C=C/C=C/c1ccc(Cl)cc1)c1ccc(Cl)cc1 | 31.2% | – | – | – | – | – | –
31 | COc1ccc(/C=C/C=C/C(=O)c2ccccc2)cc1 | 77.4% | 45.8 µM | 45.8 µM | > 100 µM | – | – | –
32 | COc1ccc(C(=O)/C=C/C=C/c2ccc(Cl)cc2)cc1 | 45.4% | 70.5 µM | 70.5 µM | 80.2 µM | – | – | –
33 | COc1ccc(/C=C/C=C/C(=O)c2ccco2)cc1 | 61.5% | 27.5 µM | 27.5 µM | 76.6 µM | – | – | –
34 | COc1ccc(/C=C/C=C/C(=O)c2cc(OC)c(O)c(OC)c2)cc1 | 89.4% | 21.5 µM | 21.4 µM | 58.6 µM | – | – | –
35 | CN(C)c1ccc(/C=C/C=C/C(=O)c2ccco2)cc1 | 56.9% | 116 µM | – | > 100 µM | – | – | –
36 | COc1ccc(/C=C/C=C/C(=O)c2ccc(C)s2)cc1 | 41.7% | – | – | – | – | – | –
37 | COc1ccc(/C=C/C=C/C(=O)c2cc(C)sc2C)cc1 | 44.8% | – | – | – | – | – | –
38 | Cc1ccc(/C=C/C=C/C(=O)c2ccccc2)cc1 | 73.7% | – | – | – | – | – | –
39 | CN(C)c1ccc(/C=C/C=C/C(=O)c2ccccc2)cc1 | 51.2% | 73.6 µM | 73.5 µM | > 100 µM | – | – | –
40 | O=C(/C=C/C=C/c1ccc(O)cc1)c1ccc(O)cc1O | 82.1% | 27.2 µM | 27.2 µM | > 100 µM | – | – | –
41 | COc1ccc(/C=C/C=C/C(=O)c2cc(Cl)cc(Cl)c2O)cc1 | < 10% | – | – | – | – | – | –
42 | CN(C)c1ccc(/C=C/C=C/C(=O)c2ccccc2O)cc1 | 16.4% | – | – | – | – | – | –
43 | Cc1ccc(C(=O)/C=C/C=C/c2ccc(O)cc2)s1 | 103% | 10.2 µM | 10.2 µM | 28.3 µM | Stable | Stable | Stable
44 | COc1ccc(/C=C/C=C/C(=O)c2ccc(C)cc2)cc1 | 42.2% | – | – | – | – | – | –
45 | O=C(/C=C/C=C/c1ccccc1)c1ccc(Cl)cc1 | < 10% | – | – | – | – | – | –
46 | COc1cc(/C=C/C(=O)CC(=O)/C=C/c2ccc(O)c(OC)c2)ccc1O [CURCUMIN] | 99.3% | – | – | > 100 µM | Stable | Unstable | Stable
